From patent US6974823B2, “Hydantoin derivative compounds, pharmaceutical compositions, and methods of using same” (GPI NIL Holdindgs, Inc., priority 1999, dated 2005) come the findings set out here.

The first experiment concerns dopaminergic neurons (MPTP lesioning). The experiment is described as follows: MPTP model of Parkinson's Disease in mice, concurrent dosing paradigm. Format: in vivo. To be noted: 10 mg/kg p.o. with MPTP (30 mg/kg i.p.) for 5 days plus 5 further days; male CD1 mice; anti-tyrosine hydroxylase immunostaining at 18 days. The protocol:
MPTP lesioning of dopaminergic neurons in mice was used as an animal model of Parkinson's Disease. Four week old male CD1 white mice were dosed i.p. with 30 mg/kg of MPTP for 5 days. Inventive compounds (4 mg/kg), or vehicle, were administered s.c. along with the MPTP for 5 days, as well as for an additional 5 days following cessation of MPTP treatment (Table IV). Inventive compounds (10 mg/kg), or vehicle, were also administered p.o. along with the MPTP for 5 days, as well as for an additional 5 days following cessation of MPTP treatment (Table V). At 18 days following MPTP treatment, the animals were sacrificed and the striata were dissected and homogenized. Immunostaining was performed on saggital and coronal brain sections using anti-tyrosine hydoxylase Ig to quantitate survival and recovery of dopaminergic neurons. In animals treated with MPTP and vehicle, a substantial loss of functional dopaminergic terminals was observed as compared to non-lesioned animals. In another protocol, test compounds were administered only subsequent to MPTP-induced lesioning. Thus, after animals were treated with MPTP for 5 days, an additional 3 days passed before beginning oral drug treatment on day 8. Animals were treated with inventive compounds (0.4 mg/kg), administered orally, once a day for 5 days total. On day 18, the animals were sacrificed and analyzed as described above. Tables IV and V present the percent recovery of dopaminergic neurons in the first (concurrent dosing) paradigms in animals receiving hydantoin derivative compounds.
Tables IV and V, below, show the remarkable neuroregenerative effects of the inventive hydantoin derivative compounds illustrating the neurotrophic capability of these compounds as a class showing that lesioned animals receiving the hydantoin derivative compounds provide a remarkable recovery of TH-stained dopaminergic neurons.
As for `O=C1[C@@H]2CCCN2C(=O)N1c1ccccc1-c1ccccc1` [Compound 2, (7aS)-2-(2′-Phenyl)phenylperhydropyrrolo[1,2-c]imidazole-1,3-dione], the “% Recovery of dopaminergic neurons” value is on record as 38.40%.

The experiment is the same for the next values; noted with them: Mus musculus, Neuron, po, 432 h; 10 mg/kg p.o. with MPTP (30 mg/kg i.p.) for 5 days plus 5 further days; male CD1 mice; anti-tyrosine hydroxylase immunostaining at 18 days.
Take `CCCCN1C(=O)C2CCCCN2C1=O` (stereo not shown) [Compound 74, 2-butyl-2,5,6,7,8,8a-hexahydro-2-azaindolizine-1,3-dione]: the % recovery of dopaminergic neurons at 10 mg/kg is 46.4%.
On to `O=C1C2CCCN2C(=S)N1Cc1ccccc1` (stereo not shown) [Compound 4, 2-benzyl-3-thioxo-2,5,6,7,7a-pentahydro-2-azapyrrolizin-1-one], for which the % recovery of dopaminergic neurons at 10 mg/kg was 49.3%.
Regarding `O=C1C2CCCCN2C(=S)N1CCCc1ccccc1` (stereo not shown) [Compound 43, 2-(3-phenylpropyl)-3-thioxo-2,5,6,7,8,8a-hexahydro-2-azaindolizin-1-one], the % recovery of dopaminergic neurons at 10 mg/kg was determined as 40.1%.
`O=C1C2CCCCN2C(=O)N1c1ccccc1` (stereo not shown) [Compound 72, 2-phenyl-2,5,6,7,8,8a-hexahydro-2-azaindolizine-1,3-dione]: the % recovery of dopaminergic neurons at 10 mg/kg stood at 37.2%.
Regarding `O=C1[C@@H]2CCCN2C(=O)N1c1ccc(C(F)(F)F)cc1` [Compound 3, (7aS)-2-(4-(Trifluoromethyl)phenyl)perhydropyrrolo[1,2-c]imidazole-1,3-dione], the % recovery of dopaminergic neurons at 10 mg/kg amounted to 78.8%.
With `CCCCCCCCN1C(=O)C2CCCCN2C1=O` (stereo not shown) [Compound 42, 2-Octyl-2,5,6,7,8,8a-hexahydro-2-azaindolizine-1,3-dione], the % recovery of dopaminergic neurons at 10 mg/kg was determined as 17.4%.
Consider `O=C1C2CCCN2C(=S)N1CCc1ccccc1` (stereo not shown) [Compound 8, 2-(2-phenylethyl)-3-thioxo-2,5,6,7,7a-pentahydro-2-azapyrrolizin-1-one], for which the % recovery of dopaminergic neurons at 10 mg/kg turned out to be 42.5%.
With `O=C1C2CCCCN2C(=S)N1Cc1ccccc1` (stereo not shown) [Compound 39, 2-benzyl-3-thioxo-2,5,6,7,8,8a-hexahydro-2-azaindolizin-1-one], the % recovery of dopaminergic neurons at 10 mg/kg worked out at 11.2%.
On the same count and under the same terms, the result for `CCCCCCCN1C(=O)C2CCCCN2C1=O` (stereo not shown) [Compound 41, 2-Heptyl-2,5,6,7,8,8a-hexahydro-2-azaindolizine-1,3-dione] reads 8.8%.
`O=C1C2CCCCN2C(=S)N1CCc1ccccc1` (stereo not shown) [Compound 40, 2-(2-phenylethyl)-3-thioxo-2,5,6,7,8,8a-hexahydro-2-azaindolizin-1-one]: the % recovery of dopaminergic neurons at 10 mg/kg was determined as 11%.
Take `O=C1C2CCCN2C(=S)N1CCCc1ccccc1` (stereo not shown) [Compound 7, 2-(3-phenylpropyl)-3-thioxo-2,5,6,7,7a-pentahydro-2-azapyrrolizin-1-one]: the % recovery of dopaminergic neurons at 10 mg/kg was 37.5%.
For `O=C1C2CCCCN2C(=O)N1Cc1ccccc1` (stereo not shown) [Compound 38, 2-Benzyl-2,5,6,7,8,8a-hexahydro-2-azaindolizine-1,3-dione], the % recovery of dopaminergic neurons at 10 mg/kg was determined as 31.4%.

The experiment is the same for the next values; noted with them: Mus musculus, Neuron, sc, 432 h; 4 mg/kg s.c. with MPTP (30 mg/kg i.p.) for 5 days plus 5 further days; male CD1 mice; anti-tyrosine hydroxylase immunostaining at 18 days.
With `O=C1[C@@H]2CCCN2C(=O)N1c1cccc2ccccc12` [Compound 1, (7aS)-2-(1-Naphthyl)perhydropyrrolo[1,2-c]imidazole-1,3-dione], the % recovery of dopaminergic neurons at 4 mg/kg was determined as 32.2%.

In the next experiment the target is FKBP-12 peptidyl-prolyl isomerase (rotamase) (Homo sapiens, UniProt P62942). The experiment is described as follows: Ki test procedure: inhibition of FKBP peptidyl-prolyl isomerase (rotamase) activity, chymotrypsin-coupled assay. Conditions: apparent Ki, substrate N-succinyl-Ala-Ala-Pro-Phe-p-nitroanilide. In kind it is biochemical. From the text: The binding to FBKP12 and inhibition of the peptidyl-prolyl isomerase (rotamase) activity of the compounds used in the inventive methods and pharmaceutical compositions can be evaluated by known methods described in the literature (Harding et al., Nature, 1989, 341:758-760; Holt et al. J. Am. Chem. Soc., 115:9923-9938). These values are obtained as apparent Ki's and are presented for representative compounds in TABLE III.
FKBP-12 peptidyl-prolyl isomerase (rotamase), sequence (P62942 whole entry): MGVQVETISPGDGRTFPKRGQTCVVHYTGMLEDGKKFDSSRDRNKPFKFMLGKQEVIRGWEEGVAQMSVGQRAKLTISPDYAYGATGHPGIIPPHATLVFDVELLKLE
The cis-trans isomerization of an alanine-proline bond in a model substrate, N-succinyl-Ala-Ala-Pro-Phe-p-nitroanilide, is monitored spectrophotometrically in a chymotrypsin-coupled assay, which releases para-nitroanilide from the trans form of the substrate. The inhibition of this reaction caused by the addition of different concentrations of inhibitor is determined, and the data is analyzed as a change in first-order rate constant as a function of inhibitor concentration to yield the apparent K1 values. […]
The absorbance at 390 nm versus time is monitored for 90 seconds using a spectrophotometer and the rate constants are determined from the absorbance versus time data files.
As for `CCc1ccccc1N1C(=O)C2CCCN2C1=O` (stereo not shown) [Compound 6, 2-(2-ethyl)phenyl-2,5,6,7,7a-pentahydro-2-azapyrrolizin-1,3-dione], the Ki is greater than 5 µM.
On the same count and under the same terms, the result for `O=C1[C@@H]2CCCN2C(=O)N1c1cccc2ccccc12` [Compound 1, (7aS)-2-(1-Naphthyl)perhydropyrrolo[1,2-c]imidazole-1,3-dione] reads greater than 10 µM.
